Measurements published in patent US20250134895A1, “METHODS AND COMPOSITIONS FOR TREATING ALPHA-SYNUCLEIN-MEDIATED NEURODEGENERATION” (UNIVERSITY HEALTH NETWORK, priority 2021, published 2025).

Key:
[1] = tested on: transgenic A30P α-synuclein C. elegans; test: Coiler score and locomotion of C. elegans expressing A30P α-synuclein in dopaminergic neurons; format: in vivo, Caenorhabditis elegans
Protocol: Using high-resolution, multi-worm tracking with custom image processing, methods were developed for semi-automated and blinded scoring of circularity for a population of simultaneously recorded animals (n=10 per recording). A coiler score was determined for the population tested by first calculating the circularity value for each animal in each frame of video and then calculating the proportion of circularity values >0.6. […] The coiler phenotype is an abnormal motor behaviour previously reported for several unc C. elegans strains with mutations affecting neuronal function.
Animals were synchronized by isolating eggs using alkaline hypochlorite treatment and hatching overnight. Larvae were plated onto NGM agar plates with OP50 and grown for 4 days before recording locomotion. For individual C. elegans recordings, a single adult animal was randomly picked, washed for 1 to 2 minutes in M9 buffer, and then transferred to a fresh NGM plate without food for imaging. Video images were acquired (2 frames per second) for up to 6 minutes using a sCMOS camera (pco.edge, PCO) mounted on a stereomicroscope (Olympus MVX10 MacroView) controlled using the μManager software.^55 A total of 40 individual animals were imaged for each strain. For C. elegans population recordings, ten adult animals were randomly removed using an eyelash pick, washed for 1 minute in M9 buffer, and then transferred to a fresh NGM plate without food, with a ring of copper sulfate solution (150 mM) around the area of recording (a chemorepellent to keep the animals in the recording frame). Exploratory locomotion was recorded using a CCD camera (GX1920, Allied Vision) which was attached to a dissecting stereomicroscope (Leica M165C, 1.0× PlanApo lens). A Labview program captured video (2 frames per second) at 1936×1456 resolution. Using ImageJ, the displacement, perimeter, and area of each animal was calculated, from which a circularity value was computed using the following formula: circularity=4π(A/P^2), where A is the area of the animal's body and P is the perimeter of the animal's body (both expressed in arbitrary pixel units). […] Using MATLAB (Mathworks), various behavioural metrics including the coiler score were calculated, which is the percentage of frames with a circularity value >0.6. Speed was automatically computed from the ImageJ based WrmTrk plugin as the distance travelled by each animal (in pixels) over the amount of time that it was tracked (in seconds).56 Average speed was determined by calculating the weighted average of each tracked animal's speed within a single population of animals. On the day of the recording for dopamine or raclopride treatment, adult animals were washed for 1 minute in M9 buffer, treated in a solution containing either drug for 1 minute, and then placed onto fresh NGM plates without food, with a copper sulfate solution ring around the area of recording. […] Drug plates were prepared by adding each drug to LB medium with OP50 before spreading onto fresh NGM plates. The solvent used to dissolve each drug was used as vehicle control for the drug treatment experiments (M9 buffer for dopamine, distilled water for raclopride, DMSO for all other drugs).
After 72 hours of drug treatment, animals were randomly picked, washed, and recorded. A total of ten worms were recorded per population, and twelve populations were recorded for each of the four treatment groups. Locomotion was recorded for each population over a total of 1800 frames over three minutes. The animal's movement speed, area, and perimeter were automatically analyzed as previously described. Coiler score was calculated automatically using a ratio of the animal's area to perimeter, where a higher coiler score would represent a greater degree of α-synuclein-induced dopaminergic neuron dysfunction in vivo.

α-synuclein protein = test: Immunoblot for α-synuclein protein in lysates of treated C. elegans; format: in vivo, Caenorhabditis elegans; settings: 50 μM
Excerpt: The chaperone system is composed of chaperone proteins, such as HSP70 (heat shock protein 70), and co-chaperones. Together, these proteins are integral to maintaining cellular protein quality control by folding newly translated polypeptides into their native conformation, refolding misfolded proteins to prevent their aggregation, and targeting proteins to degradation pathways, such as the autophagy-lysosomal system or ubiquitin-proteasome system, when refolding is unsuccessful. From the above in vitro findings, it was predicted that perturbations to the chaperone system in vivo would affect coiling of the transgenic α-synuclein C. elegans. To test this prediction, we treated the animals were treated with the geldanamycin analogue, 17-(allylamino)-17-demethoxygeldanamycin (17-AAG). […]
Synchronized animals (4 or 5 days old) were lysed in 0.5X Tris-HCl buffer with 0.5% Triton X-100 at 100° C. for 5 minutes and then passed through a 23-gauge needle 10 times. […] Protein concentration was determined with a Bio-Rad Lowry protein assay (Bio-RAD, 5000116) according to the manufacturer's instructions. […] Beads were washed and samples were analysed by immunoblotting and mass spectrometry (see below). […] Signals were detected with ECL (ThermoFisher, 32132) and developed on HyBlot CL autoradiography film (DV-E3018).

H4 neuroglioma cells = tested on: H4 neuroglioma cells
Protocol: (§1) For controls in this assay, vehicle (i.e., DMSO), rapamycin, and bafilomycin A were used. Rapamycin, or sirolimus, is a small molecule that activates autophagy by inhibiting mTOR (mammalian target of rapamycin). […] To test this possibility, cells expressing α-synuclein were treated with each of the compounds and a cell permeable, resazurin-based assay was used to test for cell viability.
(§2) H4 neuroglioma cells (ATCC, HTB-148) were maintained in Dulbecco's Modified Eagle Medium plus high glucose, L-glutamine, and sodium pyruvate (ThermoFisher, 11995-065) with 10% heat-inactivated fetal bovine serum (ThermoFisher, 16140071) and 1% antibiotic-antimycotic cocktail (ThermoFisher, 15240062) at 37° C. and 5% CO2. DNA expression constructs encoding for full-length human α-synuclein fused to the N-terminal fragment of Gaussia princeps luciferase (syn-luc1), full-length human α-synuclein fused to the C-terminal fragment of Gaussia princeps luciferase (syn-luc2), and full-length Gaussia princeps luciferase were kindly provided by Dr. Pamela McLean, Mayo Clinic Jacksonville.^33 Cells were transiently co-transfected with syn-luc1 and syn-luc2 or transfected with luciferase alone using Superfect transfection reagent (Qiagen, 301305) according to the manufacturer's instructions. Twenty-four hours after transfection, cells were plated on a 96-well microplate at 60,000 cells per well. Twenty-four hours after plating, cells were treated with drugs or vehicle control. Following 24 hours of treatment, cells were washed 1 time with PBS and bioluminescence was measured using an automated CLARIOstar plate reader (Mandel, 430-0505). Cell permeable, native coelenterazine was used as the Gaussia luciferase substrate. Lyophilized coelenterazine (Nanolight, 303-500) was reconstituted in NanoFuel Solvent (Nanolight, 399-1), then diluted in PBS to 16.6 μg/mL, and dispensed per well to a final concentration of 20 μM). The bioluminescent signal generated by the luciferase enzyme was assessed at 470 nm over 5 seconds. Raw luminescence units were normalized to the DMSO vehicle control of each 96-well microplate. To assess cell viability, H4 neuroglioma cells were prepared and treated as described above and, 1 hour prior to viability analysis, cells were treated with PrestoBlue viability reagent (ThermoFisher, A13261) according to the manufacturer's instructions. Fluorescence was automatically measured using a CLARIOstar plate reader (Mandel, 430-0505) and then normalized to the fluorescence measure of the DMSO vehicle control.

[2] = tested on: full-length Gaussia princeps luciferase; test: Activity of full-length Gaussia luciferase alone in H4 cells; format: cell-based; settings: Example 5, FIG. 5c
Protocol: as §1, §2

α-synuclein oligomers [3] = target: T1, α-synuclein oligomers (Homo sapiens, UniProt P37840); test: Venus YFP protein-fragment complementation assay in rat primary cortical neurons; format: cell-based; settings: 72 hours; losartan 100 μM, rapamycin 50 nM, rifabutin 20 μM
Protocol: Specifically, adeno-associated viral vectors (AAV) were used to co-express human α-synuclein tagged with the N- or C-terminal half of Venus yellow fluorescent protein (YFP) in rat cortical neurons.
Pregnant Sprague Dawley rats (E17) were purchased from Charles River. Embryos were surgically removed, and neurons were harvested in a sterile environment. Neurons were plated on poly-D-lysine coated glass coverslips at a density of 5×10^5 cells per well in Neurobasal-A medium, (Gibco, 10888022) supplemented with B27 (2%) (Gibco, 17504044), antibiotic-antimycotic (1%) (Gibco, 15240062), and Glutamax (1%) (Gibco, 35050061). Fifty percent media changes were performed every 3 days. […] Two days post isolation, neurons were co-transduced with AAV-V1 S and AAV-SV2 or transduced with AAV-Venus alone at a MOI of 3,000. […] Concentrations were selected to avoid neuron toxicity according to previous reports.^57-61 Drug-containing media was removed, and cells were washed 1 time with ice-cold PBS before being fixed with 4% PFA (Sigma) at room temperature for 10 minutes. Levels of α-synuclein oligomers were measured by YFP fluorescence. […] YFP fluorescence intensity was analysed automatically using Imaris imaging software (Oxford Instruments). […]

α-synuclein oligomers [4] = target: T1, α-synuclein oligomers; test: Immunoblot of crosslinked split YFP-tagged α-synuclein oligomers in rat primary cortical neuron lysates; format: cell-based; design: full-length human α-synuclein fused to the N-terminal fragment of Venus YFP (V1 S); full-length human α-synuclein fused to the C-terminal fragment of Venus YFP (SV2); host or cells: rat (Sprague Dawley, E17) primary cortical neurons, AAV co-transduction; settings: losartan 100 μM, rapamycin 50 nM, rifabutin 20 μM
Protocol: FIGS. 7A-7E. […] (a) Five positive hits were tested for their ability to reduce α-synuclein oligomer levels in rat primary cortical neurons measured with YFP-based protein-fragment complementation. […] Fluorescence intensity was analyzed using Imaris image analysis software by measuring the mean fluorescence intensity of α-synuclein positive neurons throughout a 3D field of view generated by z-stack image acquisition using the “surfaces” module. The value generated for each neuron was normalized to the mean fluorescence intensity of neurons treated with vehicle alone (N=3-4 replicates of n=10 fields of view for each treatment; each data point represents an individual replicate) (nested one-way ANOVA with Dunnett's post-hoc test, *p<0.05, *** p<0.001). […] Bottom: Representative fluorescent microscopy images of neurons treated with vehicle, losartan, rapamycin, or rifabutin and expressing YFP alone. Scale bars are […]. (e) Representative immunoblot to detect oligomers of split YFP-tagged α-synuclein (crosslinked) in rat primary cortical neuron lysates (actin used as a loading control).
Finally, it was examined whether these 5 compounds that had effects in our invertebrate C. elegans model reduce α-synuclein oligomers and α-synuclein-mediated dopaminergic neurodegeneration in mammalian systems.

α-synuclein oligomers [5] = target: T1, α-synuclein oligomers; test: Gaussia luciferase protein-fragment complementation cell assay of α-synuclein oligomers in H4 neuroglioma cells; format: cell-based; design: full-length human α-synuclein fused to the N-terminal fragment of Gaussia princeps luciferase (syn-luc1); full-length human α-synuclein fused to the C-terminal fragment of Gaussia princeps luciferase (syn-luc2); expressed in transfected cells; host or cells: H4 neuroglioma cells (ATCC, HTB-148), transient co-transfection; settings: 1 μM or 10 μM, 24 hours of treatment
Protocol: as §1, §2
We used a bioluminescent protein-fragment complementation assay in which human H4 neuroglioma cells co-express human α-synuclein tagged with the N- or C-terminal half of Gaussia princeps luciferase (FIG. 12). Reconstitution of a complete and active luciferase molecule from the fragments occurs upon α-synuclein oligomerization, and so luminescence provides an indirect measure of α-synuclein oligomer levels. H4 neuroglioma cells were co-transfected with α-syn luciferase fragments, and constructs were plated into a 96-well plate and treated with either 1 μM or 10 μM of each of the 19 drug compounds.

Row | decrease in fluorescence compared with vehicle alone (α-synuclein oligomers [3]) | α-synuclein oligomers as detected by immunoblotting (α-synuclein oligomers [4]) | decrease in luciferase activity compared with vehicle alone (α-synuclein oligomers [5]) | Compound | reduced coiling compared with vehicle control ([1]; 50 μM) | α-synuclein protein levels (α-synuclein protein) | changes in viability (H4 neuroglioma cells) | changes in the activity of full-length Gaussia luciferase alone [2] | reduction in coiling compared with vehicle alone (decrease) ([1]; 100 μM of drug, 3 days on drug plates)
1 |  |  |  | C=CCNC1=C2C[C@@H](C)C[C@H](OC)[C@H](O)[C@@H](C)/C=C(\C)[C@H](OC(N)=O)[C@@H](OC)/C=C\C=C(/C)C(=O)NC(=CC1=O)C2=O [17-AAG, 17-(allylamino)-17-demethoxygeldanamycin] | 51% | lower |  |  | 
2 | 33% | reduction | 16% | CCCCc1nc(Cl)c(CO)n1Cc1ccc(-c2ccccc2-c2nnn[nH]2)cc1 [Losartan, losartan] |  |  | No statistically significant changes | No statistically significant changes | 45%
